Activity calls are given as the source filed them. The rule behind the calls is not given here.
Key:
[1] = Glutathione reactivity in potassium phosphate buffer at pH 7.2 assessed as half life at 1 mM by UHPLC analysis; format: physicochemical
[2] = Antiproliferative activity against human gefitinib resistant NCI-H1975 cells harboring EGFR L858R/T790M double mutant assessed as inhibition of cell proliferation incubated for 72 hrs by cell count reagent SF based assay; format: functional
NCI-H358 = assay: Antiproliferative activity against human NCI-H358 cells harboring KRAS p.G12C mutant assessed as inhibition of cell growth incubated for 72 hrs by cell count reagent SF based assay; format: functional; conditions: NCI-H358, 72 h
[3] = system: GTPase KRas (Homo sapiens), P01116 [G12C]; assay: Covalent inhibition of KRAS G12C mutant in human NCI-H358 cells assessed as reduction in protein labelling by probe at 1 uM preincubated for 3 hrs and further incubated with 2-((S)-4-(7-(8-chloronaphthalen-1-yl)-2-(((S)-1-(pent-4-yn-1-yl)pyrrolidin-2-yl)methoxy)-5,6,7,8-tetrahydropyrido[3,4-d]pyrimi …; format: cell-based; conditions: time 4.0 hrs
[4] = system: GTPase KRas (Homo sapiens), P01116 [G12C]; assay: Inhibition of KRAS G12C mutant in human MIA PaCa-2 cells assessed as reduction in ERK1/2 phosphorylation at T185/Y187 residues at 0.001 to 1 uM incubated for 4 hrs by Western blot analysis; format: cell-based; conditions: dose 0.001-1 µM
[5] = system: GTPase KRas (Homo sapiens), P01116 [G12C]; assay: Inhibition of KRAS G12C mutant in human NCI-H358 cells assessed as reduction in ERK1/2 phosphorylation at T185/Y187 residues at 0.5 uM incubated for 0.5 to 4 hrs by Western blot analysis; format: cell-based; conditions: time 0.5-4 hrs
[6] = Metabolic stability in human liver microsomes assessed as clearance at 1 uM incubated for 30 mins by LC-MS/MS analysis; format: ADME, Microsome; conditions: read-out: CLH
[7] = system: GTPase KRas (Homo sapiens), P01116 [G12C]; assay: Inhibition of KRAS G12C mutant in human MIA PaCa-2 cells assessed as reduction in ERK1/2 phosphorylation at T185/Y187 residues at 0.5 uM incubated for 0.5 to 4 hrs by Western blot analysis; format: cell-based; conditions: time 0.5-4 hrs
[8] = system: GTPase KRas (Homo sapiens), P01116 [G12C]; assay: Irreversible inhibition of KRAS G12C mutant in human NCI-H358 cells assessed as reduction in ERK1/2 phosphorylation at T185/Y187 residues at 0.001 to 1 uM incubated for 4 hrs followed by washout and further incubated with fresh medium for 4 hrs by Western blot analysis; format: cell-based; conditions: dose 0.001-1 µM
MIA PaCa-2 = assay: Antiproliferative activity against human MIA PaCa-2 cells assessed as inhibition of cell growth incubated for 72 hrs by cell count reagent SF based assay; format: functional; conditions: MIA PaCa-2, 72 h
[9] = system: GTPase KRas (Homo sapiens), P01116 [G12C]; assay: Inhibition of KRAS G12C mutant in human NCI-H358 cells assessed as reduction in ERK1/2 phosphorylation at T185/Y187 residues at 0.001 to 1 uM incubated for 4 hrs by Western blot analysis; format: cell-based; conditions: dose 0.001-1 µM
[10] = target: Epidermal growth factor receptor (Homo sapiens) (UniProt P00533); assay: Inhibition of EGFR autophosphorylation at Y1068 residue in human NCI-H1975 cells at 0.01 to 1 uM incubated for 4 hrs by Western blot analysis; format: cell-based; conditions: dose 0.01-1 µM
[11] = target: Epidermal growth factor receptor (Homo sapiens) (UniProt P00533); assay: Inhibition of EGFR autophosphorylation in human NCI-H1975 cells assessed as reduction in ERK1/2 phosphorylation at T185/Y187 residue at 0.01 to 1 uM incubated for 4 hrs by Western blot analysis; format: cell-based; conditions: dose 0.01-1 µM
[12] = system: GTPase KRas (Homo sapiens), P01116 [G12C]; assay: Inhibition of KRAS G12C mutant in human NCI-H358 cells assessed as reduction in ERK1/2 phosphorylation at T185/Y187 residues at 1 uM incubated for 4 hrs by Western blot analysis; format: cell-based
[13] = system: GTPase KRas (Homo sapiens), P01116 [G12C]; assay: Inhibition of KRAS G12C mutant in human NCI-H358 cells assessed as reduction in ERK1/2 phosphorylation at T185/Y187 residues at 0.1 uM incubated for 4 hrs by Western blot analysis relative to control; format: cell-based
[14] = system: GTPase KRas (Homo sapiens), P01116 [G12C]; assay: Covalent binding affinity to recombinant human KRAS G12C mutant (1 to 169 residues) expressed in Escherichia coli BL21 (DE3) gold assessed as protein labelling at 1 uM incubated for 2 hrs by In-gel fluorescence analysis
[15] = system: GTPase KRas (Homo sapiens), P01116 [G12C]; assay: Binding affinity to KRAS G12C mutant in human NCI-H358 cells assessed as protein labelling at 1 uM incubated for 1 hrs by In-gel fluorescence analysis; format: cell-based
[16] = system: GTPase KRas (Homo sapiens), P01116 [G12C]; assay: Inhibition of KRAS G12C mutant in human NCI-H358 cells assessed as reduction in ERK1/2 phosphorylation at T185/Y187 residues upto 10 uM incubated for 4 hrs by Western blot analysis; format: cell-based

`C#CCOCCOCCOc1cccc(N2CCN(C(=O)C(C)(F)Br)CC2)c1` (centres undefined) gave a half-life at 1000 µM [1] greater than 167 h.
Work on `O=C(Nc1cc2c(Nc3ccc(F)c(Cl)c3)ncnc2cc1OCCCN1CCOCC1)[C@H]1CCCN1C(=O)C(F)Cl` (some centres undefined) yielded an IC50 [2] of 280 nM.
`CN1CCC[C@H]1COc1nc2c(c(N3CCN(C(=O)C(F)Cl)[C@@H](CC#N)C3)n1)CCN(c1cccc3cccc(Cl)c13)C2` (some centres undefined) gave an IC50 (NCI-H358) of 16.7 nM.
With `CN1CCC[C@H]1COc1nc2c(c(N3CCN(C(=O)C(Cl)Cl)[C@@H](CC#N)C3)n1)CCN(c1cccc3ccc(F)c(Cl)c13)C2` the inhibition [3] was “Active”, the inhibition [4] was “Active” and the inhibition [5] was “Active”. The microsomal CLint at 1 µM [6] was 110 µL/min/mg, the inhibition [7] was “Active” and the inhibition [8] was “Active”. For the same compound, the IC50 (MIA PaCa-2) was 5.68 nM, the inhibition [9] was “Active” and the IC50 (NCI-H358) was 10 nM.
For `C#CCOCCOCCOc1cccc(N2CCN(C(=O)CF)CC2)c1`, the half-life at 1000 µM [1] was greater than 167 h.
With `O=C(Nc1cc2c(Nc3ccc(F)c(Cl)c3)ncnc2cc1OCCCN1CCOCC1)[C@H]1CCCN1C(=O)C(Cl)Cl` the inhibition [10] was “Active”, the IC50 [2] was 490 nM and the inhibition [11] was “Active”.
Work on `CN1CCC[C@H]1COc1nc2c(c(N3CCN(C(=O)[C@H](F)Cl)[C@@H](CC#N)C3)n1)CCN(c1cccc3cccc(Cl)c13)C2` yielded an IC50 (NCI-H358) of 162 nM.
For `CN1CCC[C@H]1COc1nc2c(c(N3CCN(C(=O)CCl)[C@@H](CC#N)C3)n1)CCN(c1cccc3cccc(Cl)c13)C2`, the IC50 (NCI-H358) was 1390 nM.
Compound `CN1CCC[C@H]1COc1nc2c(c(N3CCN(C(=O)C(F)Cl)CC3)n1)CCN(c1cccc3cccc(Cl)c13)C2` (some centres undefined) has an IC50 (NCI-H358) of 4800 nM.
With `CN1CCC[C@H]1COc1nc2c(c(N3CCN(C(=O)[C@@H](F)Cl)[C@@H](CC#N)C3)n1)CCN(c1cccc3cccc(Cl)c13)C2` the microsomal CLint at 1 µM [6] was 272 µL/min/mg, the inhibition [12] was “Active” and the inhibition [13] was 100%. For the same compound, the IC50 (NCI-H358) was 12.3 nM.
`C=C(F)C(=O)N1CCN(c2nc(OC[C@@H]3CCCN3C)nc3c2CCN(c2cccc4cccc(Cl)c24)C3)C[C@@H]1CC#N` [ADAGRASIB] gave a microsomal CLint at 1 µM [6] of 215 µL/min/mg, an IC50 (MIA PaCa-2) of 3.92 nM and an IC50 (NCI-H358) of 9.2 nM.
With `C#CCOCCOCCOc1cccc(N2CCN(C(=O)C(F)(F)Br)CC2)c1` the half-life at 1000 µM [1] was 33.4 h.
In the case of `C#CCCCN1CCC[C@H]1COc1nc2c(c(N3CCN(C(=O)[C@@H](F)Cl)[C@@H](CC#N)C3)n1)CCN(c1cccc3cccc(Cl)c13)C2`, the Activity [14] is reported as “Active” and the IC50 (NCI-H358) is reported as 365 nM.
For `CN1CCC[C@H]1COc1nc2c(c(N3CCN(C(=O)C(Cl)Cl)[C@@H](CC#N)C3)n1)CCN(c1cccc3cccc(Cl)c13)C2`, the microsomal CLint at 1 µM [6] was 226 µL/min/mg, the inhibition [12] was “Active” and the inhibition [13] was 100%. The IC50 (NCI-H358) was 26.1 nM.
For `C#CCCCN1CCC[C@H]1COc1nc2c(c(N3CCN(C(=O)C(Cl)Cl)[C@@H](CC#N)C3)n1)CCN(c1cccc3ccc(F)c(Cl)c13)C2`, the Activity [14] was “Active” and the IC50 (NCI-H358) was 69.7 nM.
With `C#CCCCN1CCC[C@H]1COc1nc2c(c(N3CCN(C(=O)C(=C)F)[C@@H](CC#N)C3)n1)CCN(c1cccc3cccc(Cl)c13)C2` the Activity [15] was “Active”.
For `C#CCOCCOCCOc1cccc(N2CCN(C(=O)C(F)F)CC2)c1`, the half-life at 1000 µM [1] was 129 h.
For `CC(=O)N1CCN(c2nc(OC[C@@H]3CCCN3C)nc3c2CCN(c2cccc4cccc(Cl)c24)C3)C[C@@H]1CC#N` (racemic), the inhibition [16] was “inactive” and the IC50 (NCI-H358) was greater than 10000 nM.
